“Also recorded” adds a separate entry of the source. Like-named read-outs stand apart in the source and are kept apart here.

One data set has as its system platelets. Nature of the data set: PGH2-induced platelet aggregation (Table V). Type of data set: cell-based.
In data set [1] the test system is platelet conversion of AA to thromboxane B2 (TXB2). Nature of the data set: TXB2 formation in platelet rich plasma aggregated with arachidonic acid (radioimmunoassay). Format: cell-based. Here is the method:
(§1) Platelet rich plasma was aggregated with 500 μM arachidonic acid and three minutes following arachidonate addition, aliquots of the plasma were drawn for TXB2 determinations.

Another data set has as its system Swiss Webster mice. Type of data set: in vivo, mouse. The note with it: 30 mg/kg i.p. As for the experimental part: (§2) Swiss Webster mice (25 gm) maintained on a Purina diet were injected intraperitoneally with either 0.1 ml corn oil or 0.1 ml corn oil containing 13-azaprostanoic acid (13-APA) of Example 5. The dose of 13-APA employed was 30 mg/kg. One hour subsequent to injection, 0.05 ml of a sodium arachidonate solution was administered by rapid I.V. through the tail vein to both control and drug-treated mice. The arachidonate was dissolved in 90% saline and 10% ethanol (95%).

In a further data set the test system is platelet receptor. The experiment in a line: Platelet aggregation induced by direct agonist 9-epoxy CEE. Type of data set: cell-based. The settings on record: 3 μM 9-epoxy CEE. The source says: Such inhibitory activity has not been previously reported for any compound which selectively blocks AA-induced aggregation.
The test system of a further data set is platelet rich plasma. The experiment in a line: Platelet aggregation with 500 μM arachidonic acid (Table IV). Type of data set: cell-based. Here is the method: as §1
For another data set, the system named is mice. The experiment in a line: Observation of mice after 30 mg/kg 13-APA. Type of data set: in vivo, mouse. The settings on record: months after dose. As for the experimental part:
as §2

Data set [2] concerns thromboxane synthetase. Nature of the data set: TXB2 formation in response to added PGH2 in indomethacin-treated resuspended platelets (thromboxane synthetase). Type of data set: cell-based. As for the experimental part:
This possibility was examined by measuring the effect of 13-APA on TXB2 formation in response to added PGH2 (0.13 μg/ml). Platelets were isolated from EDTA-treated ([…]) PRP by centrifugation at 800 xg for 15 minutes. The platelet pellet was resuspended by gentle swirling in calcium-free Tyrode buffer (pH 7.4). […] Moreover, if it is assumed that TXA2 is the final mediator involved in prostaglandin activation, 13-APA must act to block the interaction of TXA2 with the platelet receptor.

The conditions of data set [3]: in vivo; cited from earlier work.
A further data set relates to cyclooxygenase. The note with it: cited from earlier work.
The subject of another data set is prostacyclin synthetase. The settings on record: cited from earlier work.
The test system of the next data set is platelet aggregation. The note with it: cited from earlier work.
Data set [4] concerns thromboxane synthetase. The note with it: cited from earlier work.
Another data set has as its system PGE2. The settings on record: cited from earlier work.
The subject of a further data set is platelet cAMP levels. The settings on record: cited from earlier work.
Setting [5] is: 1 h before I.V. arachidonate (100 mg/kg), number of mice of 4.
The mark [6] stands for this setting: AA 500 μM + imidazole 100 μg/ml.
[7] abbreviates: AA 500 μM + imidazole 200 μg/ml.

As to `CCCCCCCN[C@H]1CCC[C@@H]1CCCCCCC(=O)O` [Example 13-APA, 13-azaprostanoic acid], the “inhibition of PGH2-induced aggregation (in words)” value in the data set with platelets (13-APA 10 μM) is reported as “completely effective in inhibiting PGH2 -induced aggregation”. Moreover, the “% Aggregation” value stood at 0% with platelets (PGH2 […] + 13-APA 10 μM); 0% in the data set with platelets (PGH2 […] + 13-APA 50 μM); 0% in the data set on platelets (PGH2 […] + 13-APA 100 μM); 80% with platelet rich plasma (AA 500 μM + 13-APA 10 μM); 0% in the data set with platelet rich plasma (AA 500 μM + 13-APA 50 μM). The TXB2 in [1] (AA 500 μM + 13-APA 10 μM) came to 1164 ± 25 ng/mL; in [1] (AA 500 μM + 13-APA 50 μM) it was 750 ± 19 ng/mL; in the data set on thromboxane synthetase [2] (PGH2 […] + 13-APA 10 μM) it was 50 ± 2 ng/mL; in the data set with thromboxane synthetase [2] (PGH2 […] + 13-APA 50 μM) it was 44 ± 2 ng/mL; in the data set on thromboxane synthetase [2] (PGH2 […] + 13-APA 100 μM) it was 40 ± 2 ng/mL. For the same compound, the inhibition at 50 µM in data set [1] (Platelet, 0.05 h, 13-APA 50 μM, read-out: decrease of TXB2 formation) amounted to 36%. For the same compound, the Death in the data set on Swiss Webster mice (setting [5]) is 0. Besides, the “Severe Respiratory Distress” value with Swiss Webster mice (setting [5]) stood at 0. Also, in the data set with Swiss Webster mice (arachidonate 100 mg/kg I.V.), the “symptoms of thromboembolism (in words)” value was “none of the symptoms of thromboembolism”. Moreover, the “inhibition of aggregation induced by 9-epoxy CEE (in words)” value in the data set with platelet receptor (13-APA 100 μM) is “completely inhibited”. For the same compound, the inhibition at 10 µM in the data set with platelet receptor (Platelet, 13-APA 10 μM) is around 60%. Also, the “inhibition of aggregation (in words)” value with platelet rich plasma (13-APA 50 μM) is “completely inhibits aggregation”. Moreover, the “ill effects / toxicity (in words)” value in the data set with mice was “no ill effects are evident”. Further, the “platelet production of TXB2 (in words)” value with thromboxane synthetase [2] (13-APA 100 μM) is on record as “no effect on platelet production of TXB2”.
Consider `CC(=O)Oc1ccccc1C(=O)O` [aspirin], for which the “bleeding times (in words)” value in data set [3] was “prolong bleeding times”. The “inhibition of prostaglandin biosynthesis / cyclooxygenase (in words)” value in the data set with cyclooxygenase was “inhibit prostaglandin biosynthesis by blocking the conversion of substrate fatty acids to endoperoxides”.
`CCCCCC/C=C/C1C2CC(N=N2)C1C/C=C\CCCC(=O)O` (centres unmarked) [azo prostanoic acid analog]: the “inhibition of prostacyclin synthetase (in words)” value in the data set on prostacyclin synthetase is recorded as “inhibitory activity may also extend to prostacyclin synthetase”. The “effect on platelet aggregation (in words)” value with platelet aggregation is “inhibitor of platelet aggregation induced by PGH2, arachidonic acid, or collagen, and of the second wave of ADP or epinephrine-induced aggregation”; with platelet aggregation (listed as azo analog), “suppressed the attendant aggregation induced by arachidonate in a parallel, concentration-dependent fashion”. Further, the figures for the “inhibition of thromboxane synthetase (in words)” value in the data set on thromboxane synthetase [4] and with thromboxane synthetase [4] (listed as azo analog) were “potent inhibitor of thromboxane synthetase” and “competitive inhibitor of PGH2 binding to the thromboxane synthetase enzyme; also recorded: selectively inhibit thromboxane synthetase in a concentration dependent fashion”, respectively. Also, the “inhibition of prostaglandin biosynthesis / cyclooxygenase (in words)” value in the data set with cyclooxygenase was “cyclooxygenase enzyme was not affected”. For the same compound, in the data set on PGE2, the “PGE2 formation (in words)” value is listed as “increase in PGE2”.
Take `c1c[nH]cn1` [imidazole]: the “% Aggregation” value in the data set on platelets (PGH2 […] + imidazole 20 μg/ml) worked out at 30%; in the data set with platelets (PGH2 […] + imidazole 100 μg/ml) it was 50%; in the data set with platelets (PGH2 […] + imidazole 200 μg/ml), 60%; in the data set on platelet rich plasma (AA 500 μM + imidazole 20 μg/ml) it was 21%; in the data set on platelet rich plasma (setting [6]), 11%; with platelet rich plasma (setting [7]) it was 5%. The TXB2 in data set [1] (AA 500 μM + imidazole 20 μg/ml) worked out at 669 ± 33 ng/mL; in data set [1] (setting [6]), 264 ± 7 ng/mL; in data set [1] (setting [7]), 138 ± 8 ng/mL; in the data set with thromboxane synthetase [2] (PGH2 […] + imidazole 20 μg/ml) it was 26 ± 1 ng/mL; in the data set with thromboxane synthetase [2] (PGH2 […] + imidazole 100 μg/ml) it was 6 ± 1 ng/mL; in the data set on thromboxane synthetase [2] (PGH2 […] + imidazole 200 μg/ml), 3 ± 1 ng/mL. In data set [1] (imidazole 200 μg/ml), the “TXB2 formation (in words)” value is reported as “substantial depression of TXB2 formation”. Further, in [1] (imidazole decreased from 200 μg/ml to 20 μg/ml), the “TXB2 levels versus control (in words)” value is “significantly lower than control”. The “effect on platelet aggregation (in words)” value in the data set on platelet aggregation is listed as “erratic; also recorded: potentiate aggregation in washed platelets”. For the same compound, the “concentration necessary to achieve inhibition of thromboxane synthetase” value in the data set with thromboxane synthetase [4] is listed as 2 mM. Further, the “inhibition of thromboxane synthetase (in words)” value with thromboxane synthetase [4] was “selectively inhibit thromboxane synthetase in a concentration dependent fashion”; in the data set with thromboxane synthetase [4] (listed as Imidazole), “selectively inhibits thromboxane synthetase”. The inhibition at 20 µg/mL in the data set on platelet rich plasma (Platelet, read-out: inhibition of aggregation) is around 75%. Further, in the data set on platelet cAMP levels, the “changes in platelet cAMP levels (in words)” value is recorded as “without inducing changes in platelet cAMP levels”. For the same compound, the “thromboxane synthetase inhibition (in words)” value with thromboxane synthetase [2] (imidazole 20-200 μg/ml) was “blocks thromboxane synthetase in a dose dependent manner”.

The values are drawn from US4239778A, “Azaprostanoic acid analogs and their use as inhibitors of platelet aggregation” (priority 1978, dated 1980).
